Source: publication PMC4767141, “Discovery of Potent, Orally Bioavailable, Small-Molecule Inhibitors of WNT Signaling from a Cell-Based Pathway Screen” (Journal of Medicinal Chemistry, 2015)

How the values were obtained:
[1] = molecular target: T1, PKG1ALPHA (Homo sapiens, UniProt Q13976); assay: Millipore kinase panel; type: biochemical; details: read-out: % Control
T1 construct: purchased Millipore KinaseProfiler (kinases); Cerep (receptors and ion channels)

[2] = molecular target: T2, MSSK1 (Homo sapiens, UniProt Q9UPE1); assay: Millipore kinase panel; type: biochemical; details: read-out: % Control
T2 construct: purchased Millipore KinaseProfiler (kinases); Cerep (receptors and ion channels)

[3] = molecular target: T3, PDGFRBETA (Homo sapiens, UniProt P09619); assay: Millipore kinase panel; type: biochemical; details: read-out: % Control
T3 construct: purchased Millipore KinaseProfiler (kinases); Cerep (receptors and ion channels)

[4] = molecular target: T4, EPHB1 (Homo sapiens, UniProt P54762); assay: Millipore kinase panel; type: biochemical; details: read-out: % Control
T4 construct: purchased Millipore KinaseProfiler (kinases); Cerep (receptors and ion channels)

[5] = molecular target: T5, PKCALPHA (Homo sapiens, UniProt P17252); assay: Millipore kinase panel; type: biochemical; details: read-out: % Control
T5 construct: purchased Millipore KinaseProfiler (kinases); Cerep (receptors and ion channels)

[6] = molecular target: T6, EPHA1 (Homo sapiens, UniProt P21709); assay: Millipore kinase panel; type: biochemical; details: read-out: % Control
T6 construct: purchased Millipore KinaseProfiler (kinases); Cerep (receptors and ion channels)

[7] = molecular target: T7, NTS1 (NT1) (h) (Homo sapiens, UniProt P30989); assay: CEREP binding panel; details: agonist radioligand, read-out: % Inhibition of Control Specific Binding
T7 construct: purchased Millipore KinaseProfiler (kinases); Cerep (receptors and ion channels)

[8] = molecular target: T8, CRAF (Homo sapiens, UniProt P04049); assay: Millipore kinase panel; type: biochemical; details: read-out: % Control
T8 construct: purchased Millipore KinaseProfiler (kinases); Cerep (receptors and ion channels)

[9] = molecular target: T9, TAO1 (Homo sapiens, UniProt Q7L7X3); assay: Millipore kinase panel; type: biochemical; details: read-out: % Control
T9 construct: purchased Millipore KinaseProfiler (kinases); Cerep (receptors and ion channels)

[10] = molecular target: T10, YES (Homo sapiens, UniProt P07947); assay: Millipore kinase panel; type: biochemical; details: read-out: % Control
T10 construct: purchased Millipore KinaseProfiler (kinases); Cerep (receptors and ion channels)

[11] = molecular target: T11, GCK (Homo sapiens, UniProt Q12851); assay: Millipore kinase panel; type: biochemical; details: read-out: % Control
T11 construct: purchased Millipore KinaseProfiler (kinases); Cerep (receptors and ion channels)

[12] = molecular target: T12, NEK7 (Homo sapiens, UniProt Q8TDX7); assay: Millipore kinase panel; type: biochemical; details: read-out: % Control
T12 construct: purchased Millipore KinaseProfiler (kinases); Cerep (receptors and ion channels)

[13] = molecular target: T13, BMX (Homo sapiens, UniProt P51813); assay: Millipore kinase panel; type: biochemical; details: read-out: % Control
T13 construct: purchased Millipore KinaseProfiler (kinases); Cerep (receptors and ion channels)

[14] = molecular target: T14, MAPK1 (Homo sapiens, UniProt P27361); assay: Millipore kinase panel; type: biochemical; details: read-out: % Control
T14 construct: purchased Millipore KinaseProfiler (kinases); Cerep (receptors and ion channels)

[15] = molecular target: T15, Y2 (h) (Homo sapiens, UniProt P49146); assay: CEREP binding panel; details: agonist radioligand, read-out: % Inhibition of Control Specific Binding
T15 construct: purchased Millipore KinaseProfiler (kinases); Cerep (receptors and ion channels)

[16] = molecular target: T16, CB1 (h) (Homo sapiens, UniProt P21554); assay: CEREP binding panel; details: 10 μM, agonist radioligand
T16 construct: purchased Millipore KinaseProfiler (kinases); Cerep (receptors and ion channels)

[17] = molecular target: T17, IRR (Homo sapiens, UniProt P14616); assay: Millipore kinase panel; type: biochemical; details: read-out: % Control
T17 construct: purchased Millipore KinaseProfiler (kinases); Cerep (receptors and ion channels)

[18] = test system: PI3 KINASE (P110A/P85A); assay: Millipore kinase panel; type: biochemical; details: 1 μM, ATP at Km
[19] = molecular target: T18, IRAK4 (Homo sapiens, UniProt Q9NWZ3); assay: Millipore kinase panel; type: biochemical; details: read-out: % Control
T18 construct: purchased Millipore KinaseProfiler (kinases); Cerep (receptors and ion channels)

[20] = molecular target: T19, ITK (Homo sapiens, UniProt Q08881); assay: Millipore kinase panel; type: biochemical; details: read-out: % Control
T19 construct: purchased Millipore KinaseProfiler (kinases); Cerep (receptors and ion channels)

[21] = molecular target: T20, EPHA7 (Homo sapiens, UniProt Q15375); assay: Millipore kinase panel; type: biochemical; details: read-out: % Control
T20 construct: purchased Millipore KinaseProfiler (kinases); Cerep (receptors and ion channels)

[22] = molecular target: T21, STK33 (Homo sapiens, UniProt Q9BYT3); assay: Millipore kinase panel; type: biochemical; details: read-out: % Control
T21 construct: purchased Millipore KinaseProfiler (kinases); Cerep (receptors and ion channels)

[23] = molecular target: T22, NEK3 (Homo sapiens, UniProt P51956); assay: Millipore kinase panel; type: biochemical; details: read-out: % Control
T22 construct: purchased Millipore KinaseProfiler (kinases); Cerep (receptors and ion channels)

[24] = molecular target: T23, 5-HT7 (h) (Homo sapiens, UniProt P34969); assay: CEREP binding panel; details: agonist radioligand, read-out: % Inhibition of Control Specific Binding
T23 construct: purchased Millipore KinaseProfiler (kinases); Cerep (receptors and ion channels)

[25] = molecular target: T24, MTOR (Homo sapiens, UniProt P42345); assay: Millipore kinase panel; type: biochemical; details: read-out: % Control
T24 construct: purchased Millipore KinaseProfiler (kinases); Cerep (receptors and ion channels)

[26] = molecular target: T25, PAK6 (Homo sapiens, UniProt Q9NQU5); assay: Millipore kinase panel; type: biochemical; details: read-out: % Control
T25 construct: purchased Millipore KinaseProfiler (kinases); Cerep (receptors and ion channels)

[27] = molecular target: T26, MARK1 (Homo sapiens, UniProt Q9P0L2); assay: Millipore kinase panel; type: biochemical; details: read-out: % Control
T26 construct: purchased Millipore KinaseProfiler (kinases); Cerep (receptors and ion channels)

[28] = molecular target: T27, EPHA3 (Homo sapiens, UniProt P29320); assay: Millipore kinase panel; type: biochemical; details: read-out: % Control
T27 construct: purchased Millipore KinaseProfiler (kinases); Cerep (receptors and ion channels)

[29] = molecular target: T28, JNK1ALPHA1 (Homo sapiens, UniProt P45983); assay: Millipore kinase panel; type: biochemical; details: read-out: % Control
T28 construct: purchased Millipore KinaseProfiler (kinases); Cerep (receptors and ion channels)

[30] = molecular target: T29, MT1 (ML1A) (h) (Homo sapiens, UniProt P48039); assay: CEREP binding panel; details: agonist radioligand, read-out: % Inhibition of Control Specific Binding
T29 construct: purchased Millipore KinaseProfiler (kinases); Cerep (receptors and ion channels)

[31] = molecular target: T30, M1 (h) (Homo sapiens, UniProt P11229); assay: CEREP binding panel; details: antagonist radioligand, read-out: % Inhibition of Control Specific Binding
T30 construct: purchased Millipore KinaseProfiler (kinases); Cerep (receptors and ion channels)

[32] = molecular target: T31, FGR (Homo sapiens, UniProt P09769); assay: Millipore kinase panel; type: biochemical; details: read-out: % Control
T31 construct: purchased Millipore KinaseProfiler (kinases); Cerep (receptors and ion channels)

[33] = molecular target: T32, BRK (Homo sapiens, UniProt Q13882); assay: Millipore kinase panel; type: biochemical; details: read-out: % Control
T32 construct: purchased Millipore KinaseProfiler (kinases); Cerep (receptors and ion channels)

[34] = molecular target: T33, MNK2 (Homo sapiens, UniProt Q9HBH9); assay: Millipore kinase panel; type: biochemical; details: read-out: % Control
T33 construct: purchased Millipore KinaseProfiler (kinases); Cerep (receptors and ion channels)

[35] = molecular target: T34, TIE2 (Homo sapiens, UniProt Q02763); assay: Millipore kinase panel; type: biochemical; details: read-out: % Control
T34 construct: purchased Millipore KinaseProfiler (kinases); Cerep (receptors and ion channels)

[36] = molecular target: T35, RSK2 (Homo sapiens, UniProt P51812); assay: Millipore kinase panel; type: biochemical; details: read-out: % Control
T35 construct: purchased Millipore KinaseProfiler (kinases); Cerep (receptors and ion channels)

[37] = molecular target: T36, HASPIN (Homo sapiens, UniProt Q8TF76); assay: Millipore kinase panel; type: biochemical; details: read-out: % Control
T36 construct: purchased Millipore KinaseProfiler (kinases); Cerep (receptors and ion channels)

[38] = molecular target: T37, JAK3 (Homo sapiens, UniProt P52333); assay: Millipore kinase panel; type: biochemical; details: read-out: % Control
T37 construct: purchased Millipore KinaseProfiler (kinases); Cerep (receptors and ion channels)

[39] = molecular target: T38, JNK3 (Homo sapiens, UniProt P53779); assay: Millipore kinase panel; type: biochemical; details: read-out: % Control
T38 construct: purchased Millipore KinaseProfiler (kinases); Cerep (receptors and ion channels)

[40] = molecular target: T39, FLT3 (Homo sapiens, UniProt P36888); assay: Millipore kinase panel; type: biochemical; details: read-out: % Control
T39 construct: purchased Millipore KinaseProfiler (kinases); Cerep (receptors and ion channels)

[41] = molecular target: T40, FLT4 (Homo sapiens, UniProt P35916); assay: Millipore kinase panel; type: biochemical; details: read-out: % Control
T40 construct: purchased Millipore KinaseProfiler (kinases); Cerep (receptors and ion channels)

[42] = molecular target: T41, MAPKAP-K2 (Homo sapiens, UniProt P49137); assay: Millipore kinase panel; type: biochemical; details: read-out: % Control
T41 construct: purchased Millipore KinaseProfiler (kinases); Cerep (receptors and ion channels)

[43] = molecular target: T42, ERBB4 (Homo sapiens, UniProt Q15303); assay: Millipore kinase panel; type: biochemical; details: read-out: % Control
T42 construct: purchased Millipore KinaseProfiler (kinases); Cerep (receptors and ion channels)

[44] = molecular target: T43, PAK4 (Homo sapiens, UniProt O96013); assay: Millipore kinase panel; type: biochemical; details: read-out: % Control
T43 construct: purchased Millipore KinaseProfiler (kinases); Cerep (receptors and ion channels)

T3 sequence (P09619 33-1106): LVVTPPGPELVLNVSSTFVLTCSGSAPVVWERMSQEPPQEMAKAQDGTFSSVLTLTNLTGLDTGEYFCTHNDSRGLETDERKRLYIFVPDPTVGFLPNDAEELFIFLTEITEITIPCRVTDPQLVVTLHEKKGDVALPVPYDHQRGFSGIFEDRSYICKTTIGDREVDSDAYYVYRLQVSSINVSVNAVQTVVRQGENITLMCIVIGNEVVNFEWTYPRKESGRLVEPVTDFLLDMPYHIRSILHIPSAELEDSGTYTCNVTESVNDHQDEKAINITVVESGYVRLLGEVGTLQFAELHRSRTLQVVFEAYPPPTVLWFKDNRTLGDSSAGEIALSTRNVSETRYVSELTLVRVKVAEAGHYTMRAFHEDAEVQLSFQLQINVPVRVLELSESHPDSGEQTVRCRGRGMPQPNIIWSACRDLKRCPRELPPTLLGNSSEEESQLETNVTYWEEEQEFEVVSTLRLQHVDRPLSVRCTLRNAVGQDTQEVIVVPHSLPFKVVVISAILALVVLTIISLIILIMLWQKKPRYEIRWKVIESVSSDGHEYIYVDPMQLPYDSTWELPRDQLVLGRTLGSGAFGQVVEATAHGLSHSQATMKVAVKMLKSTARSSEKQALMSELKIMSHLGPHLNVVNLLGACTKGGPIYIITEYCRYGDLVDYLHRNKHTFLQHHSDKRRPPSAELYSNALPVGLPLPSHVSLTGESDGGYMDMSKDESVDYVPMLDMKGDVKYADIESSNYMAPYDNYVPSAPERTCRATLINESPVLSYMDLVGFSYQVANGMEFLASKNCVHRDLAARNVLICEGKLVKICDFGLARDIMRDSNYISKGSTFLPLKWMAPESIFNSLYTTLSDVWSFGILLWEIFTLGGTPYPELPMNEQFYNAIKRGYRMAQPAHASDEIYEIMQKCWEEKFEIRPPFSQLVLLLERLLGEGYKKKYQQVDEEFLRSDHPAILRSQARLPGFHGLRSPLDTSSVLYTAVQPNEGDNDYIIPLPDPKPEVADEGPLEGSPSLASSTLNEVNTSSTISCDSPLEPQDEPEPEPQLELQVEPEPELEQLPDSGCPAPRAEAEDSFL
T42 sequence (Q15303 26-1308): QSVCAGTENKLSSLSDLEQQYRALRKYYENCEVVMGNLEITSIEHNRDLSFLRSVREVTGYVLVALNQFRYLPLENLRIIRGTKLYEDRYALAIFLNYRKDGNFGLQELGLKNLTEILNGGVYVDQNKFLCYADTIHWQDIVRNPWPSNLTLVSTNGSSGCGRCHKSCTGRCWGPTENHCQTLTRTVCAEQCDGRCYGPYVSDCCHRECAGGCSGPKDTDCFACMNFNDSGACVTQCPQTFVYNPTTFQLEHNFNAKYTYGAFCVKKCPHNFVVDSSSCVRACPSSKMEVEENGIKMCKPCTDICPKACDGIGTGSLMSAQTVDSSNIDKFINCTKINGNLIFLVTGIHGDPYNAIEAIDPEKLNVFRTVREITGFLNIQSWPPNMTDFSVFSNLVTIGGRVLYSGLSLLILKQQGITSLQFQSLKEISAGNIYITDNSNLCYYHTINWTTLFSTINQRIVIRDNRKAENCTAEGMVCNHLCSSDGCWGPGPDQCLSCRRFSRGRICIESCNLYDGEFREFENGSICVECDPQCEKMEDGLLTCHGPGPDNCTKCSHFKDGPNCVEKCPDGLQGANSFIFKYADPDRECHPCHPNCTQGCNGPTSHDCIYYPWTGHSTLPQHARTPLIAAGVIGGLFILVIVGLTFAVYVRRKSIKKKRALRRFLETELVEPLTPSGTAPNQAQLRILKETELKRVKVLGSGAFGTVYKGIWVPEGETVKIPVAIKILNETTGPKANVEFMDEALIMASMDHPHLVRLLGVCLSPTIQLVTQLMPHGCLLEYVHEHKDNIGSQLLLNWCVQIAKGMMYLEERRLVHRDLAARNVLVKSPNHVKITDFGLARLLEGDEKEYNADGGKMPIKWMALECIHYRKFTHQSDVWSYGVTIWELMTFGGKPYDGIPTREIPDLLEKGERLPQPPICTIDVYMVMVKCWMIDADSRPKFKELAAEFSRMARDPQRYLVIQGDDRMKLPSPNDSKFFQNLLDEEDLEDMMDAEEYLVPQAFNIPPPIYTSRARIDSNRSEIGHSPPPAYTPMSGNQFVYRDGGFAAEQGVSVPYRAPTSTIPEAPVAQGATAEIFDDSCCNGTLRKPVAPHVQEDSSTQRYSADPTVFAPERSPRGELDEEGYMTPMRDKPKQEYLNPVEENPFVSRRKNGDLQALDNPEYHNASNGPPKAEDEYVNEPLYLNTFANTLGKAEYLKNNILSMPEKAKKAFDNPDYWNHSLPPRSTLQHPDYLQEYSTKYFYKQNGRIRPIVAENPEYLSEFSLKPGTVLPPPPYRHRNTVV
T17 sequence (P14616 27-1297): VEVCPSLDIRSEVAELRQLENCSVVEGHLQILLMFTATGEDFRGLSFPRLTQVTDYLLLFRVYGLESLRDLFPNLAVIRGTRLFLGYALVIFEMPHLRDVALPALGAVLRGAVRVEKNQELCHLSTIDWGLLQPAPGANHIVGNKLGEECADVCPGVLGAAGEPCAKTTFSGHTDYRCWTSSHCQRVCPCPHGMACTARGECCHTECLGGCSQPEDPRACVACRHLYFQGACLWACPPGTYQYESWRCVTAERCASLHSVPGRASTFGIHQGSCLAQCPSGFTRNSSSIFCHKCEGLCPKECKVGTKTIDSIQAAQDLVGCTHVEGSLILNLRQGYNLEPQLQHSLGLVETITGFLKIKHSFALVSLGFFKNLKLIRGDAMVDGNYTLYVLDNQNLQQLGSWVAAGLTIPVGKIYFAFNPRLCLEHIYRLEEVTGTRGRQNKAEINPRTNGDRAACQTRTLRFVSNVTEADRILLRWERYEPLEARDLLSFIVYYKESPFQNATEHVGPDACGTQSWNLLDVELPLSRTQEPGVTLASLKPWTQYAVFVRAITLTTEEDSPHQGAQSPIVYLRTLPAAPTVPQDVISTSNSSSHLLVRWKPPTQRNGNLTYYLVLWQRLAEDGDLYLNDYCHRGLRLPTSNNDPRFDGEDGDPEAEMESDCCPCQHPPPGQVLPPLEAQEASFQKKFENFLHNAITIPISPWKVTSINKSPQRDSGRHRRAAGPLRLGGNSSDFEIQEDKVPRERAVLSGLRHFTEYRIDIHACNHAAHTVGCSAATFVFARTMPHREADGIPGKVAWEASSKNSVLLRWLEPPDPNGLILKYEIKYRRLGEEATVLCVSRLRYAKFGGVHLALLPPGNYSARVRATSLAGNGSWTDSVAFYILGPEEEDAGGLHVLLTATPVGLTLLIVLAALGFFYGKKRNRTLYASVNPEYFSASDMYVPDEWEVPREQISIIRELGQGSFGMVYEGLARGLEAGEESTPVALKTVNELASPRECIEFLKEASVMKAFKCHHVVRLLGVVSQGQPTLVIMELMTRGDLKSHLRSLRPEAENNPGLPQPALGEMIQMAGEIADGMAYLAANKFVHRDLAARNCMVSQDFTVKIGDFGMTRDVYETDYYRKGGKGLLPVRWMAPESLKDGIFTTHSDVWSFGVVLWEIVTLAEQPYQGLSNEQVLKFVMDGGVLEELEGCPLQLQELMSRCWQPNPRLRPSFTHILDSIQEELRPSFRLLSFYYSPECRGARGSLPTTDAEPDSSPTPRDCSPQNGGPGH
T8 sequence (P04049 whole entry): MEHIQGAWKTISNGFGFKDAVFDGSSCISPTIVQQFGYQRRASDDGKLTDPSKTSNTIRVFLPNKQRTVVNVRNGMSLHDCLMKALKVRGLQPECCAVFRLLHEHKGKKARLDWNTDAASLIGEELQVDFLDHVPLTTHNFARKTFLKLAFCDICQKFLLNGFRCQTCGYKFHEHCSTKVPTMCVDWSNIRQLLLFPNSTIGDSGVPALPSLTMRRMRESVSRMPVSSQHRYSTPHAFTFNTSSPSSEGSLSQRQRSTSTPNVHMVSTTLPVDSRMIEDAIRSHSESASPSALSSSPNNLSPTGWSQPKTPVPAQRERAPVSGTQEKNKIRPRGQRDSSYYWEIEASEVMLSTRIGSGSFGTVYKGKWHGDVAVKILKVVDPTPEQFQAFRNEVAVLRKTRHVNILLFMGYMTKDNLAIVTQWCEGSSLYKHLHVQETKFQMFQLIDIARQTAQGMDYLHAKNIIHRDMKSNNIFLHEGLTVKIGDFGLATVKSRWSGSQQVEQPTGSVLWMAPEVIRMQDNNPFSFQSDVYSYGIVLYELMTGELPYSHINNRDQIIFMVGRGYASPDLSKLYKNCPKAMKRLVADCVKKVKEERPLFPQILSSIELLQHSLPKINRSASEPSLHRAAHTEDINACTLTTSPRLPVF
T2 sequence (Q9UPE1 whole entry): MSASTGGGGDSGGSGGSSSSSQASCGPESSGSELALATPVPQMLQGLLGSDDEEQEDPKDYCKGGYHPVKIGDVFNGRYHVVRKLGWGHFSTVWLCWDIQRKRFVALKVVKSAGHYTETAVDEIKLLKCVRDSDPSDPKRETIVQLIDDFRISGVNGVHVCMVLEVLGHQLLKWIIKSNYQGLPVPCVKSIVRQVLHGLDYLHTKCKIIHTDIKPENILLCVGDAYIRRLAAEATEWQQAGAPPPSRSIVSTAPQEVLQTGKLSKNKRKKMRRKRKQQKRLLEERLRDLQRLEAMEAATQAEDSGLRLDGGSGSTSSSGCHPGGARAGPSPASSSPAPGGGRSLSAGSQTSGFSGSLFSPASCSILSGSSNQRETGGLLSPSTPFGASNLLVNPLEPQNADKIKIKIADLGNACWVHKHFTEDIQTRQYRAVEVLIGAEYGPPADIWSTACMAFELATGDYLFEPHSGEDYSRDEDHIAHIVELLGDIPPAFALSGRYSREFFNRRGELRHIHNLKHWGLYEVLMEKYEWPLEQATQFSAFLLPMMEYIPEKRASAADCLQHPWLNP

For Cn1cc(-c2ccc(-c3cncc(Cl)c3N3CCC4(CCNC4=O)CC3)cc2)cn1 [Compound 74, 8-(3-Chloro-5-(4-(1-methyl-1H-pyrazol-4-yl)phenyl)pyridin-4-yl)-2,8-diazaspiro[4.5]decan-1-one], the remaining activity at 1 µM [1] was 0%, the remaining activity at 1 µM [2] was -2% and the remaining activity at 1 µM [3] was -6%. For the same molecule, the remaining activity at 1 µM [4] was -7%, the remaining activity at 1 µM [5] was -5% and the remaining activity at 1 µM [6] was -2%. It also gave an inhibition at 10 µM [7] of -8%, a remaining activity at 1 µM [8] of 5% and a remaining activity at 1 µM [9] of -14%. The remaining activity at 1 µM [10] was 7%, the remaining activity at 1 µM [11] was -28% and the remaining activity at 1 µM [12] was 2%. It also gave a remaining activity at 1 µM [13] of -2%, a remaining activity at 1 µM [14] of 11% and an inhibition at 10 µM [15] of -2%. The “% Inhibition of Control Specific Binding” value [16] was 2%, the remaining activity at 1 µM [17] was 3% and the “% Control” value [18] was -1%. The remaining activity at 1 µM [19] was -3%, the remaining activity at 1 µM [20] was -3% and the remaining activity at 1 µM [21] was 6%. The remaining activity at 1 µM [22] was 9%, the remaining activity at 1 µM [23] was 15% and the inhibition at 10 µM [24] was 1%. It also gave a remaining activity at 1 µM [25] of 7%, a remaining activity at 1 µM [26] of -2% and a remaining activity at 1 µM [27] of 2%. It also gave a remaining activity at 1 µM [28] of 6%, a remaining activity at 1 µM [29] of -9% and an inhibition at 10 µM [30] of 34%. It also gave an inhibition at 10 µM [31] of 21%, a remaining activity at 1 µM [32] of 0% and a remaining activity at 1 µM [33] of 11%. The remaining activity at 1 µM [34] was 2%, the remaining activity at 1 µM [35] was -25% and the remaining activity at 1 µM [36] was -12%. It also gave a remaining activity at 1 µM [37] of -11%, a remaining activity at 1 µM [38] of 0% and a remaining activity at 1 µM [39] of -7%. The remaining activity at 1 µM [40] was -9%, the remaining activity at 1 µM [41] was -23% and the remaining activity at 1 µM [42] was 0%. For the same molecule, the remaining activity at 1 µM [43] was 0% and the remaining activity at 1 µM [44] was 9%.
